According to patent publication US20230286983A1 (4E Therapeutics, Inc., priority 2020, published 2023):

How the values were obtained:
MNK1 = MNK1 (Homo sapiens, UniProt Q9BUB5); experiment: MNK1 substrate phosphorylation assay; type: biochemical; settings: recombinant human kinase
[1] = system: eIF4E phosphorylation at Serine 209 in the human embryonic kidney (HEK) 293 cell line; experiment: eIF4E phosphorylation in HEK 293 cells (fluorescent plate reader); type: cell-based; settings: eIF4E phosphorylation at Serine 209, 2 hours exposure; for IC50: Homo sapiens
Experimental: The ability of MNK inhibitors described herein to inhibit eIF4E phosphorylation at Serine 209 in the human embryonic kidney (HEK) 293 cell line was tested by exposing the cells to compound for 2 hours and then measuring eIF4E phosphorylation with a phosphorylation-specific antibody in a fluorescent plate reader. These experiments were done with HEK-293 cells plated on 96 well plates. Following treatment, cells were fixed with ice cold methanol for 10 min and then washed in 1× phosphate buffered saline (PBS) and the permeabilized with 0.02% Triton X-100 in 10% normal goat serum made up in PBS. Primary antibody was applied overnight at a concentration dilution of 1:2000 (p-eIF4E antibody from Cell Signaling ab76256). Following washing, cells were then exposed to secondary antibody conjugated to alexa-fluor 488 and then visualized on a Syngergy HTX plate reader. Fluorescence for p-eIF4E was measured and normalized to total DAPI fluorescence to determine the percentage of eIF4E phosphorylation in each well. Data were plotted in Graphpad Prism V8 to determine concentration-response effects and calculate IC50 values.

MNK2 = MNK2 (Homo sapiens, UniProt Q9HBH9); experiment: MNK2 substrate phosphorylation assay; type: biochemical; settings: recombinant human kinase
[2] = system: eIF4E phosphorylation at Serine 209 in Karpas 299; experiment: eIF4E phosphorylation in Karpas 299 cells (sandwich ELISA); type: cell-based; settings: Homo sapiens, read-out: Karpas 299 cell IC50
Experimental: The ability of MNK inhibitors described herein to inhibit eIF4E phosphorylation at Serine 209 in Karpas 299, Human Non-Hodgkin's Ki-positive Large Cell Lymphoma cell line was tested by sandwich enzyme linked immune-absorbance assay.

P-gp (human MDR1, ABCB1) = experiment: MDCK-MDR1 permeability (blood brain barrier permeability); type: in vitro ADME, Canine; settings: dog; for efflux ratio at 5 μM: MDCK-MDR1, 5 μM, read-out: Efflux ratio (ratio B-A/A-B); for Papp A→B at 5 μM: MDCK-MDR1, Apical to basolateral transport; for Papp A→B at 5 μM / Papp B→A at 5 μM: average of two experiments; for Papp B→A at 5 μM: MDCK-MDR1, Basolateral to apical transport
[3] = target: Cdc2-like kinase 4 (CLK4) (Homo sapiens, UniProt Q9HAZ1); experiment: Off-target kinase screen CLK4; type: biochemical; settings: 1 μM test compound
Source text: (§1) These kinases were chosen because they are the only known off-target hit kinases for eFT508. These assays were done using recombinant human kinases (CLK4, DRAK1 and PKG2) in a substrate phosphorylation assay. % activity remaining after MNK inhibitor treatment is indicated in Table 12.

[4] = system: eIF4E phosphorylation at Serine 209 in the human osteosarcoma (U2OS) cell line; experiment: eIF4E phosphorylation in U2OS cells (fluorescent plate reader); type: cell-based; settings: eIF4E phosphorylation at Serine 209, 2 hours exposure; for IC50: Homo sapiens, U2OS
Experimental: The ability of MNK inhibitors described herein to inhibit eIF4E phosphorylation at Serine 209 in the human osteosarcoma (U2OS) cell line was tested by exposing the cells to compound for 2 hours and then measuring eIF4E phosphorylation with a phosphorylation-specific antibody in a fluorescent plate reader.

[5] = Liver microsome stability, human; type: in vitro ADME; settings: liver microsomes; for half-life: read-out: Human liver microsomes t1/2
[6] = Liver microsome stability, rat; type: in vitro ADME; settings: Rat liver microsomes (#); for microsomal CLint: read-out: CLint rodent; for half-life: read-out: Rodent liver microsomes t1/2
[7] = target: T1, death-associated protein kinase-related apoptosis-inducing protein kinase 1 (DRAK1) (Homo sapiens, UniProt Q9UEE5); experiment: Off-target kinase screen DRAK1; type: biochemical; settings: 1 μM test compound
T1 sequence (Q9UEE5 1-414): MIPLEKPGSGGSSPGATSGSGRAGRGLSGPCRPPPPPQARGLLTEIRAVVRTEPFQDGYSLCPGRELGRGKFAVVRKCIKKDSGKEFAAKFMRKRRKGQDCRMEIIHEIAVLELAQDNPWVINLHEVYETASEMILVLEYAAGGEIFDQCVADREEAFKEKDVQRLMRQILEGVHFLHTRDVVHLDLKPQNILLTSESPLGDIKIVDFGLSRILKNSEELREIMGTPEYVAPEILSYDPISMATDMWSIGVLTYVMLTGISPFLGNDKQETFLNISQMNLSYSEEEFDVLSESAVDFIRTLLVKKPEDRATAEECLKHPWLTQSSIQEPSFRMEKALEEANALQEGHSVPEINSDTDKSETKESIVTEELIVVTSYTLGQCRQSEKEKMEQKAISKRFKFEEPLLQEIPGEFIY
Source text: as §1

[8] = target: T2, protein kinase G 2 (PKG2) (Homo sapiens, UniProt Q13237); experiment: Off-target kinase screen PKG2; type: biochemical; settings: 1 μM test compound
T2 sequence (Q13237 1-762): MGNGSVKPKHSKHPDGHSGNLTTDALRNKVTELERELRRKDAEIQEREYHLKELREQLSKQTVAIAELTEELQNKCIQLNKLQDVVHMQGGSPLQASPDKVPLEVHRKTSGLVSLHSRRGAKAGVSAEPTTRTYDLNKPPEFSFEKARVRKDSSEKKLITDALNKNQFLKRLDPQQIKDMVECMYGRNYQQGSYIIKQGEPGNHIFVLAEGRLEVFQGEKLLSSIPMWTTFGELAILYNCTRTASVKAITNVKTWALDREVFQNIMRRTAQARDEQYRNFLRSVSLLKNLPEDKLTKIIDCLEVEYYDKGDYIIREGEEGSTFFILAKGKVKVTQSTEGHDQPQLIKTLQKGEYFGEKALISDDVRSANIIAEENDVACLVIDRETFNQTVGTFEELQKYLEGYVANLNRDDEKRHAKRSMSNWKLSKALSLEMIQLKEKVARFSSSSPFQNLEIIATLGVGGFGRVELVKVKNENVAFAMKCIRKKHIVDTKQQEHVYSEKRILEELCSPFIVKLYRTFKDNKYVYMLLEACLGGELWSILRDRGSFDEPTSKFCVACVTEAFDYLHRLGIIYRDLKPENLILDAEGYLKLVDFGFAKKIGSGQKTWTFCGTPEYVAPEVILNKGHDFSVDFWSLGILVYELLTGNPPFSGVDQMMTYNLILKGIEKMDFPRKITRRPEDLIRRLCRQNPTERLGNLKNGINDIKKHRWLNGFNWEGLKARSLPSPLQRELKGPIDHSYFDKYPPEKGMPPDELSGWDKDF
Source text: as §1

[9] = Liver microsome stability, mouse; type: in vitro ADME; settings: Mouse liver microsomes (*); for microsomal CLint: read-out: CLint rodent; for half-life: mouse, liver microsomes, Table 11a, read-out: Rodent liver microsomes t1/2

Sequence of MNK2 (Q9HBH9 whole entry): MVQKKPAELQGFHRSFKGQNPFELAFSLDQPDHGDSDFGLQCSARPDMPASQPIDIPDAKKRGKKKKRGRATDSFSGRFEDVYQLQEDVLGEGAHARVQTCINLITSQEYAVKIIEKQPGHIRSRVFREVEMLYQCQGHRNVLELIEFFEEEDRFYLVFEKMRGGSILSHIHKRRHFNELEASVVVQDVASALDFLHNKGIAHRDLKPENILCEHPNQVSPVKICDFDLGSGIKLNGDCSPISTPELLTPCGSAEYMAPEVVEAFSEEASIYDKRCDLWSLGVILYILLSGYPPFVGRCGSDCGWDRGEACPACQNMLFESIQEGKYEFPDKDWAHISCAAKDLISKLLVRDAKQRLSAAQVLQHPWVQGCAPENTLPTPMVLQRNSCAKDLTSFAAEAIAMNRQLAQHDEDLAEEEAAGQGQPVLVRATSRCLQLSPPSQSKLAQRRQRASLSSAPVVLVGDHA
Sequence of MNK1 (Q9BUB5 whole entry): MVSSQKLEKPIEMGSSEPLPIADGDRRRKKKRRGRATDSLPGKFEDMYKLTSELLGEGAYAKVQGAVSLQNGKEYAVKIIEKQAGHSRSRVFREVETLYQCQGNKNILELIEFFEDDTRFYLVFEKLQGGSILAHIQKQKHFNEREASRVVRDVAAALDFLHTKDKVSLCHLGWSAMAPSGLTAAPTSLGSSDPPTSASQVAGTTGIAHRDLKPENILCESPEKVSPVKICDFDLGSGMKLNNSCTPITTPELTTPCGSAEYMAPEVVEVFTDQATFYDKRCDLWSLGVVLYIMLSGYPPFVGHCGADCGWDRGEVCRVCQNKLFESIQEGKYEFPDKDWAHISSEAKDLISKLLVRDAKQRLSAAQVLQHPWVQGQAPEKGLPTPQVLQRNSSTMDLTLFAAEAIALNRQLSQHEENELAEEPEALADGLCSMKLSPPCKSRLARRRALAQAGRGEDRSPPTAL
Sequence of Cdc2-like kinase 4 (CLK4) (Q9HAZ1 whole entry): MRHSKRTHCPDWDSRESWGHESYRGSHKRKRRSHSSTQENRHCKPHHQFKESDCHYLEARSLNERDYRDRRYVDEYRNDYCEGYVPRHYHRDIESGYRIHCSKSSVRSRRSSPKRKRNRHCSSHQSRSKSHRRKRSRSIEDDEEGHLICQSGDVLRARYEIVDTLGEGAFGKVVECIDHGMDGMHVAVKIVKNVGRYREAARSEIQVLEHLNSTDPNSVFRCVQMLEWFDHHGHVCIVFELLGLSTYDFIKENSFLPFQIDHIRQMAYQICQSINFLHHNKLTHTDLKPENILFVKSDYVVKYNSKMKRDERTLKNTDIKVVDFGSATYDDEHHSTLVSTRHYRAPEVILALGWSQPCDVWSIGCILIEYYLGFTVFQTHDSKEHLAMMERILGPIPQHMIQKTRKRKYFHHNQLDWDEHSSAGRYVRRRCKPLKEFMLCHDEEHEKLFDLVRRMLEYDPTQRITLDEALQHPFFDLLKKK

Compound: Cc1cc(Nc2cc(N)ncn2)c(=O)n2c1C(=O)NC21CCOCC1 [Compound 4ET-01-002, 6-((6-Aminopyrimidin-4-yl)amino)-8-methyl-2′,3′,5′,6′-tetrahydro-2H-spiro[imidazo[1,5-a]pyridine-3,4′-pyran]-1,5-dione]
- IC50 (MNK1): 27.9 nM
- IC50 ([1]; HEK293, 2 h): 18.5 nM
- IC50 (MNK2): 2.6 nM
- IC50 [2]: 33 nM
- efflux ratio at 5 μM (P-gp (human MDR1, ABCB1)): 2.2
- Papp A→B at 5 μM (P-gp (human MDR1, ABCB1)): 2.6 ×10⁻⁶ cm/s
- Papp B→A at 5 μM (P-gp (human MDR1, ABCB1)): 5.6 ×10⁻⁶ cm/s
- remaining activity at 1 µM [3]: 100%
- IC50 [4]: 6.9 nM
- microsomal CLint [5]: 2.17 µL/min/mg
- half-life [5]: 10.7 h
- microsomal CLint [6]: 2.7 µL/min/mg
- half-life [6]: 8.57 h
- remaining activity at 1 µM [7]: 72%
- remaining activity at 1 µM [8]: 97%

Compound: Cc1cc(Nc2cc(N)ncn2)c(=O)n2c1C(=O)NC21CCC(O)CC1 (stereo not shown) [Compound 4ET-01-005, 6′-((6-Aminopyrimidin-4-yl)amino)-4-hydroxy-8′-methyl-2′H-spiro[cyclohexane-1,3′-imidazo[1,5-a]pyridine]-1′,5′-dione]
- IC50 (MNK1): 9.8 nM
- IC50 ([1]; HEK293): 8.2 nM
- IC50 [2]: 26 nM
- efflux ratio at 5 μM (P-gp (human MDR1, ABCB1)): 2.7
- Papp A→B at 5 μM (P-gp (human MDR1, ABCB1)): 0.2 ×10⁻⁶ cm/s
- Papp B→A at 5 μM (P-gp (human MDR1, ABCB1)): 0.6 ×10⁻⁶ cm/s
- remaining activity at 1 µM [3]: 63%
- IC50 [4]: 8.2 nM
- microsomal CLint [5]: 3.6 µL/min/mg
- half-life [5]: 6.42 h
- microsomal CLint [9]: 3.53 µL/min/mg
- half-life [9]: 6.55 h
- remaining activity at 1 µM [7]: 41%
- remaining activity at 1 µM [8]: 100%

Compound: Cc1cc(Nc2cc(NCCNS(C)(=O)=O)ncn2)c(=O)n2c1C(=O)NC21CCCCC1 [Compound 4ET-02-004, N-(2-((6-((8′-methyl-1′,5′-dioxo-1′,5′-dihydro-2′H-spiro[cyclohexane-1,3′-imidazo[1,5-a]pyridin]-6′-yl)amino)pyrimidin-4-yl)amino)ethyl)methanesulfonamide]
- IC50 (MNK1): 61.7 nM
- IC50 ([1]; HEK293, 2 h): 30.7 nM
- IC50 (MNK2): 2.1 nM
- efflux ratio at 5 μM (P-gp (human MDR1, ABCB1)): 30.2
- Papp A→B at 5 μM (P-gp (human MDR1, ABCB1)): 0.3 ×10⁻⁶ cm/s
- Papp B→A at 5 μM (P-gp (human MDR1, ABCB1)): 7.6 ×10⁻⁶ cm/s
- remaining activity at 1 µM [3]: 81%
- IC50 [4]: 30 nM
- microsomal CLint [5]: 1.25 µL/min/mg
- half-life [5]: 18.5 h
- microsomal CLint [9]: 2.5 µL/min/mg
- half-life [9]: 9.25 h
- remaining activity at 1 µM [7]: 86%
- remaining activity at 1 µM [8]: 100%

Compound: Cc1cc(Nc2cc(NC(=O)C(C)C)ncn2)c(=O)n2c1C(=O)NC21CCCC1 [Compound 4ET-03-005, N-(6-((8′-Methyl-1′,5′-dioxo-1′,5′-dihydro-2′H-spiro[cyclopentane-1,3′-imidazo[1,5-a]pyridin]-6′-yl)amino)pyrimidin-4-yl)isobutyramide]
- IC50 (MNK1): 20.5 nM
- IC50 ([1]; HEK293, 2 h): 2.6 nM
- IC50 (MNK2): 1.8 nM
- IC50 [2]: 6.4 nM
- efflux ratio at 5 μM (P-gp (human MDR1, ABCB1)): 3.8
- Papp A→B at 5 μM (P-gp (human MDR1, ABCB1)): 15.5 ×10⁻⁶ cm/s
- Papp B→A at 5 μM (P-gp (human MDR1, ABCB1)): 58.6 ×10⁻⁶ cm/s
- IC50 [4]: 5.1 nM
- microsomal CLint [5]: 0.77 µL/min/mg
- half-life [5]: 29.9 h
- microsomal CLint [6]: 4.84 µL/min/mg
- half-life [6]: 4.78 h

Compound: Cc1cc(Nc2cc(NCCNS(C)(=O)=O)ncn2)c(=O)n2c1C(=O)NC21CCCC1 [Compound 4ET-03-013, N-(2-((6-((8′-methyl-1′,5′-dioxo-1′,5′-dihydro-2′H-spiro[cyclopentane-1,3′-imidazo[1,5-a]pyridin]-6′-yl)amino)pyrimidin-4-yl)amino)ethyl)methanesulfonamide]
- IC50 (MNK1): 205 nM
- HEK 293 cell IC50 [1]: inactive
- IC50 (MNK2): 8 nM
- efflux ratio at 5 μM (P-gp (human MDR1, ABCB1)): 18.1
- Papp A→B at 5 μM (P-gp (human MDR1, ABCB1)): 0.2 ×10⁻⁶ cm/s
- Papp B→A at 5 μM (P-gp (human MDR1, ABCB1)): 3.9 ×10⁻⁶ cm/s
- U2OS cell IC50 [4]: inactive

Compound: Cc1cc(Nc2cc(NC(=O)C3CC3)ncn2)c(=O)n2c1C(=O)NC21CCC(O)CC1 (stereo not shown) [Compound 4ET-03-015, N-(6-((4-Hydroxy-8′-methyl-1′,5′-dioxo-1′,5′-dihydro-2′H-spiro[cyclohexane-1,3′-imidazo[1,5-a]pyridin]-6′-yl)amino)pyrimidin-4-yl)cyclopropanecarboxamide]
- IC50 (MNK1): 19.1 nM
- IC50 ([1]; HEK293, 2 h): 2.7 nM
- IC50 (MNK2): 1.4 nM
- IC50 [2]: 3 nM
- efflux ratio at 5 μM (P-gp (human MDR1, ABCB1)): 10
- Papp A→B at 5 μM (P-gp (human MDR1, ABCB1)): 0.9 ×10⁻⁶ cm/s
- Papp B→A at 5 μM (P-gp (human MDR1, ABCB1)): 8.7 ×10⁻⁶ cm/s
- remaining activity at 1 µM [3]: 14%
- IC50 [4]: 2.4 nM
- microsomal CLint [5]: 2.73 µL/min/mg
- half-life [5]: 8.45 h
- microsomal CLint [6]: 3.18 µL/min/mg
- half-life [6]: 7.27 h
- remaining activity at 1 µM [7]: 16%
- remaining activity at 1 µM [8]: 100%

Compound: Cc1cc(Nc2cc(NC(=O)C3CC3)ncn2)c(=O)n2c1C(=O)NC21CCCC1 [Compound 4ET-03-017, N-(6-((8′-Methyl-1′,5′-dioxo-1′,5′-dihydro-2′H-spiro[cyclopentane-1,3′-imidazo[1,5-a]pyridin]-6′-yl)amino)pyrimidin-4-yl)cyclopropanecarboxamide]
- IC50 ([1]; HEK293): 0.9 nM
- IC50 [2]: 1 nM
- Papp A→B at 5 μM (P-gp (human MDR1, ABCB1)): 16.3 ×10⁻⁶ cm/s
- Papp B→A at 5 μM (P-gp (human MDR1, ABCB1)): 58.9 ×10⁻⁶ cm/s
- remaining activity at 1 µM [3]: 17%
- IC50 [4]: 0.4 nM
- remaining activity at 1 µM [7]: 9%
- remaining activity at 1 µM [8]: 100%
